Assay results reported in US20170319562A1, “Compositions and Methods for Extended Therapy with Aminopyridines” (Acorda Therapeutics, Inc., priority 2009, published 2017).

What was measured:
[1] = system: patients with multiple sclerosis; experiment: MS-F204EXT open-label extension study; format: in vivo, human; settings: cut-off Jul. 31, 2008
Description: Data were presented by study pair (parent and extension).
In the MS-F204EXT study, which allowed patients to enroll directly from the parent study MS-F204, open label 4-aminopyridine-SR 10 mg b.i.d. was dispensed at visit 0 (a separate screening visit was only required if the screening visit could not be combined with the Final visit for MS-F204); visit 1 was scheduled to occur two weeks after screening visit (or visit 0), visit 2 at 12 weeks after visit 1, visit 3 at 12 weeks after visit 2. The planned interval between subsequent visits was 26 weeks. Therefore, at visit 4, a patient should have been on 4-aminopyridine-SR treatment for approximately one year.
This Example considers efficacy data collected from the three ongoing, open label extension studies (MS-F202EXT, MS-F203EXT, MS-F204EXT). The primary focus was the Timed 25-Foot Walk, assessed in a manner consistent with its evaluation in the parent double-blind studies. This included the determination of response to treatment using a criterion equivalent to the Timed Walk Response criterion used in the parent studies. […] The clinical meaningfulness of this criterion was evaluated in terms of the Subject and Clinician Global Impression scores recorded during the extension studies.
In the extension studies, a “Timed Walk Extension Responder” was defined as a patient who achieved a faster walking speed on the T25FW for the majority of on-drug treatment visits during the first year of the study (Visits 1-4 for MS-F203EXT and MS-F204EXT) than the maximum walking speed previously measured for the patient during any off-drug visits in either the parent study or in the extension study.

[2] = Pharmacokinetics after i.v. and p.o. 4-aminopyridine (2 mg/kg) in rats; settings: single p.o. 2 mg/kg
Description: Distribution: The volume of distribution at steady state (Vdss) in rats has been reported to approximate total body volume (not adjusted for bioavailability).

[3] = Bioavailability and pharmacokinetics in healthy volunteers; settings: 10 mg oral solution
[4] = system: patients with multiple sclerosis; experiment: MS-F203 Phase 3 double-blind placebo-controlled study; format: in vivo, human; settings: 10 mg b.i.d.
Excerpt: A three stage, stepwise analysis based on this variable was used to establish a positive outcome on the primary endpoint and to establish its clinical meaningfulness with respect to overall walking ability. […] The second step was to register a significant improvement in MSWS-12 score for the Timed-Walk Responders when compared to Timed-Walk Non-Responders. The third step was to confirm maintenance of effect by testing whether those patients who responded to 4-aminopyridine-SR on the T25FW would still register a significant improvement in walking speed relative to placebo-treated patients at the last observed double-blind visit (i.e., the change from baseline in walking speed at the double-blind endpoint). FIG. 47 depicts walking speed improvements found in the MS-F203 study: In FIG. 47, the two graphs show the average change in walking speed from baseline at each of the four visits over the 3 months of double blind treatment. […] There was no indication of a loss of efficacy over, e.g., 12 weeks, 13 weeks, 14 weeks, 3 months of treatment in this study. The MS-F203 study established that the improvement in walking speed seen in treated Timed Walk Responders was maintained over, e.g., 12 weeks, 13 weeks, 14 weeks, 3 months of treatment. The enxtention data herein established that periods greater than those of this study were able to be effeicaious, thus as a durable and chronic therapy. […]

[5] = oral, non-sustained release; cited from earlier work

Nc1ccncc1 [4-aminopyridine]
patients classified as Extension Timed Walk Responders ([1]; all patients): 49.3%
patients classified as Extension Timed Walk Responders ([1]; parent-study treated Timed Walk Non-Responders): 30.0%
patients classified as Extension Timed Walk Responders ([1]; parent-study treated Timed Walk Responders): 71.4%
patients classified as Extension Timed Walk Responders ([1]; placebo-treated in parent study): 50.0%
Vdss lower in females than in males [2]: 13%
Cmax [3]: 42.7 ng/mL
improvement in walking speed across the treatment period ([4]; Timed Walk Non-responders): approximately 7%
average increase in walking speed over the treatment period compared to baseline ([4]; Timed Walk Responders): approximately 25%
time of peak plasma concentrations after dosing [5]: ≤ 1 h
